From patent US20260184726A1, “HETEROCYCLIC COMPOUNDS AS KINASE INHIBITORS, COMPOSITIONS, AND METHODS OF USE THEREOF” (JS INNOMED HOLDINGS LTD., priority 2022, published 2026) come the findings set out here.

Where two headings read alike, the source gives them in different places.

One assay addresses T1, human RET kinase (Homo sapiens, UniProt P07949).
T1 construct: purchased Carna 08-159
In words: RET Kinase Assay (mobility shift assay, ATP at Km). Format: biochemical. As to conditions: 23 μM ATP (Km), read-out: RET Enzymatic Activity. How it is done:
Compounds were tested by Mobility shift assay with ATP concentration at Km. The assay used human RET kinase (Carna 08-159). Test compounds were prepared and diluted in DMSO in 3-fold serial dilutions to 50× of the final testing concentrations. The compounds were then further diluted to 5× by the kinase reaction buffer (50 mM HEPES pH 7.5, 0.0015% Brij-35). The enzymatic reaction for compound testing was performed in a white 384-well polypropylene plate (Corning 3573) with a total reaction volume of 25 μl containing 7 nM RET, 3 μM peptide substrate FAM-P2 (GL Biochem 112394), and 23 μM ATP (Sigma A7699-1G). The assay started with loading RET diluted in kinase reaction buffer to wells, followed by addition of equal volume of 5× compounds for 15-min incubation at the room temperature for pre-treatment. The enzymatic reaction was initiated by addition of mixture of the substrate and ATP prepared in kinase reaction buffer. After incubation at 28° C. for one hour, 25 μl of stopper buffer (a mixture of 100 mM HEPES pH 7.5 buffer, 0.015% Brij-35, 50 mM EDTA and 0.2% of coating reagent 3 (Cliper Lifesciences)). After 30 minutes of incubation at room temperature, the plate was read in a Caliper. Percent of control was calculated as the percentage of compound-treated vs 2% DMSO vehicle-treated. The dose-response curves were generated and the IC50 values were calculated by nonlinear sigmoid curve fitting using XLFit.

The target in assay [1] is BA/F3-KIF5B-RET M918T cells (Homo sapiens, UniProt P07949, M918T, cells depend on it, form not given). Nature of the assay: Ba/F3 RET-M918T Cell Proliferation Assay (CellTiter-Glo). As to conditions: growth inhibition, 72 hours; Table 3. Format: cell-based. The protocol:
(§1) Compounds disclosed herein were tested for the inhibition of RET by a cancer cell proliferation assay commonly known as CellTiter-Glo assay. In this assay, a complete media was prepared by adding 10% fetal bovine serum to RPMI-1640 medium (Life technology) for RET-driven cancer cells (BAF3-FIF5B-RET, Ba/F3-KIF5B-RET-G810R, Ba/F3-TEL-RET-M918T or Ba/F3-KIF5B-RET-V804M). Individual RET-driven type of cells were added to each of 88 wells of a 96 well plate at a seeding density of 2,000 cells/well/95 μL. The cells were allowed to attach to the plate by incubating at 37° C. for 24 hours. The compound was dissolved in DMSO (SIGMA). A solution of test compound was prepared in complete media by serial dilution to obtain the following concentrations: 20 μM, 6.67 μM, 2.22 μM, 0.74 μM, 0.25 μM, 0.082 μM, 0.027 μM, 0.0091 μM and 0.0030 μM. The test compound solution (5 μL) was added to each of 80 cell-containing wells. The final concentrations of the compound were following: 1 μM, 0.33 μM, 0.11 μM, 0.037 μM, 0.012 μM, 0.0041 μM, 0.0014 μM, 0.00046 μM and 0.00015 μM. The final concentration of DMSO is 0.1%. To the 8 remaining cell-containing wells, only complete media (containing 0.1% DMSO) was added to form a control group in order to measure maximal proliferation. To the remaining 8 empty wells, complete media was added to for a vehicle control group in order to measure background. The plates were incubated at 37° C. for 72 hours. 50 μl of CellTiter-Glo® Reagent was added to each well. Mix contents for 2 minutes on an orbital shaker to induce cell lysis. Incubate at room temperature for 10 minutes to stabilize luminescent signal. Record luminescence on Paradigm. Cell viability (CV %) was calculated relative to vehicle (DMSO) treated control wells. The IC50 was calculated using GraphPad Prism.
Background: Cellular ATP, detected with luciferase, serves as a proxy for viable cell number.

The target in assay [2] is T2, Ba/F3-KIF5B-RET-V804M cells (Homo sapiens, UniProt P07949, V804M, cells depend on it).
T2 construct: fused on or other part: P33176 (Kinesin-1 heavy chain)
In words: Ba/F3-KIF5B-RET-V804M Cell Proliferation Assay (CellTiter-Glo). The format is cell-based. To be noted: growth inhibition, 72 hours; Table 3; read-out: BZ/F3-KIF5B-RET V804M. The protocol: as §1

Assay [3] deals with T3, Ba/F3-KIF5B-RET-G810R cells (Homo sapiens, UniProt P07949, G810R, cells depend on it).
T3 construct: fused on or other part: P33176 (Kinesin-1 heavy chain)
Nature of the assay: Ba/F3-KIF5B-RET-G810R Cell Proliferation Assay (CellTiter-Glo). Format: cell-based. As to conditions: growth inhibition, 72 hours; Table 3. How it is done: as §1

The next assay addresses T4, human Aurora B kinase (Homo sapiens, UniProt Q96GD4).
T4 construct: purchased Carna 05-102
Nature of the assay: Aurora B Kinase Assay (mobility shift assay, ATP at Km). Format: biochemical. To be noted: 15 μM ATP (Km), read-out: AurB Enzymatic Activity. How it is done:
Compounds were tested by Mobility shift assay with ATP concentration at Km. The assay used human Aurora B kinase (Carna 05-102). Test compounds were prepared and diluted in DMSO in 3-fold serial dilutions to 50× of the final testing concentrations. The compounds were then further diluted to 5× by the kinase reaction buffer (50 mM HEPES pH 7.5, 0.0015% Brij-35). The enzymatic reaction for compound testing was performed in a white 384-well polypropylene plate (Corning 3573) with a total reaction volume of 25 μl containing 9 nM Aurora B, 3 μM peptide substrate FAM-P21 (GL Biochem 116370), and 15 μM ATP (Sigma A7699-1G). The assay started with loading Aurora B diluted in kinase reaction buffer to wells, followed by addition of equal volume of 5× compounds for 15-min incubation at the room temperature for pre-treatment. The enzymatic reaction was initiated by addition of mixture of the substrate and ATP prepared in kinase reaction buffer. After incubation at 28° C. for one hour, 25 μl of stopper buffer (a mixture of 100 mM HEPES pH 7.5 buffer, 0.015% Brij-35, 50 mM EDTA and 0.2% of coating reagent 3 (Cliper Lifesciences)). After 30 minutes of incubation at room temperature, the plate was read in a Caliper. Percent of control was calculated as the percentage of compound-treated vs 2% DMSO vehicle-treated. The dose-response curves were generated and the IC50 values were calculated by nonlinear sigmoid curve fitting using XLFit.

The test system of a further assay is BAF3 cells. In words: BAF3 Cell Proliferation Assay (CellTiter-Glo, without RET driven, IL-3). Format: cell-based. As to conditions: Mus musculus; growth inhibition in BAF3 cells, 72 hours, with IL-3; read-out: BAF3 Cellular Activity. Summed up: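 BAF3 cells in RPMI-1640 with 10% FBS and 1 ng/ml IL-3, seeded 2,000/well and settled 24 h at 37 °C, then exposed to compound at final 10 μM down to 0.0015 μM (0.1% DMSO) for 72 h. Viability by CellTiter-Glo luminescence versus DMSO controls; IC50 from curve fit.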

The target of another assay is T5, BAF3-KIF5B-RET cells (Homo sapiens, UniProt P07949).
T5 construct: fused on or other part: P33176 (Kinesin-1 heavy chain)
Nature of the assay: BAF3-KIF5B-RET Cell Proliferation Assay (CellTiter-Glo). Format: cell-based. To be noted: growth inhibition, 72 hours. Summed up: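 Ba/F3 cells driven by KIF5B-RET (wild-type, V804M or G810R) or TEL-RET-M918T, 2,000 per well in RPMI/10% FBS, attached 24 h. Treated 72 h at 37° C with compound from 0.00015 to 1 μM final, 0.1% DMSO. CellTiter-Glo luminescence relative to DMSO wells gave IC50.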

The target of a further assay is T6, human KDR kinase (Homo sapiens, UniProt P35968).
T6 construct: purchased Carna 08-191
Nature of the assay: KDR Kinase Assay (mobility shift assay, ATP at Km). The format is biochemical. To be noted: 92 μM ATP (Km), read-out: KDR Enzymatic Activity. The protocol: Compounds were tested by Mobility shift assay with ATP concentration at Km. The assay used human KDR kinase (Carna 08-191). Test compounds were prepared and diluted in DMSO in 3-fold serial dilutions to 50× of the final testing concentrations. The compounds were then further diluted to 5× by the kinase reaction buffer (50 mM HEPES pH 7.5, 0.0015% Brij-35). The enzymatic reaction for compound testing was performed in a white 384-well polypropylene plate (Corning 3573) with a total reaction volume of 25 μl containing 1.2 nM KDR, 3 μM peptide substrate FAM-P22 (GL Biochem 112393), and 92 μM ATP (Sigma A7699-1G). The assay started with loading RET diluted in kinase reaction buffer to wells, followed by addition of equal volume of 5× compounds for 15-min incubation at the room temperature for pre-treatment. The enzymatic reaction was initiated by addition of mixture of the substrate and ATP prepared in kinase reaction buffer. After incubation at 28° C. for one hour, 25 μl of stopper buffer (a mixture of 100 mM HEPES pH 7.5 buffer, 0.015% Brij-35, 50 mM EDTA and 0.2% of coating reagent 3 (Cliper Lifesciences)). After 30 minutes of incubation at room temperature, the plate was read in a Caliper. Percent of control was calculated as the percentage of compound-treated vs 2% DMSO vehicle-treated. The dose-response curves were generated and the IC50s were calculated by nonlinear sigmoid curve fitting using XLFit.

Where [4] appears, read: Table 2, read-out: BA/F3-KIF5B-RET Cellular activity.
The mark [5] stands for this setting: Table 3, read-out: BA/F3-KIF5B-RET.

T5 sequence (P07949 whole entry, change not shown, the tested form may be a part): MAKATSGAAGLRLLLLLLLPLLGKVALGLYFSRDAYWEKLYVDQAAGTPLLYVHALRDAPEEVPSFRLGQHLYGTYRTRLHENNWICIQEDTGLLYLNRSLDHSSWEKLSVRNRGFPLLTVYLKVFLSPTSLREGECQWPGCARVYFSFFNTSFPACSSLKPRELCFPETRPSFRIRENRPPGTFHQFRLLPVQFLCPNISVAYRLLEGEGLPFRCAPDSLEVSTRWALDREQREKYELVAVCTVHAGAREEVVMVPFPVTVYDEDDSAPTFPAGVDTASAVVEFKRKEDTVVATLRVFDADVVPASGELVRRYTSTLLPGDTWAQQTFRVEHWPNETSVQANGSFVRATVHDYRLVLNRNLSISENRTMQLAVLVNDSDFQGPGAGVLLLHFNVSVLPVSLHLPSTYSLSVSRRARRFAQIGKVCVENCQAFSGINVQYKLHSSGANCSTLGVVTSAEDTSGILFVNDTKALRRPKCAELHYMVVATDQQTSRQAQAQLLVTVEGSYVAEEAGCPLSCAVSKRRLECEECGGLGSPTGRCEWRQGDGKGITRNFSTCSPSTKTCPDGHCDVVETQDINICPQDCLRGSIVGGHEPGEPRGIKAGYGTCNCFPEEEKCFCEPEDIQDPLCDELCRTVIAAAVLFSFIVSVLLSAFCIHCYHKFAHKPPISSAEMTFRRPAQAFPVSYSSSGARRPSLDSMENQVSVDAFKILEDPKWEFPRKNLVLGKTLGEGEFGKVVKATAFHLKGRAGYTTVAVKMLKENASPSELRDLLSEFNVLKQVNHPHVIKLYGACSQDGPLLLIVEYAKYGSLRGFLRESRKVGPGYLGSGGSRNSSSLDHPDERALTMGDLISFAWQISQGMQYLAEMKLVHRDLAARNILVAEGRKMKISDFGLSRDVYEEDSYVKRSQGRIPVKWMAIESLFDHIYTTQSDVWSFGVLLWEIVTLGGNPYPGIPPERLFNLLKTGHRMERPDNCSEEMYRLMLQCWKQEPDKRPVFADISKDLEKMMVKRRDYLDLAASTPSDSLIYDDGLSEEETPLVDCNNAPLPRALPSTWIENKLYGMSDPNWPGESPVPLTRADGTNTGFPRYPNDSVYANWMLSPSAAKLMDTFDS
T2 sequence (P07949 whole entry V804M, the tested form may be a part): as the sequence (P07949 whole entry, change not shown, the tested form may be a part) above, with V804M counted along it
Chain of BA/F3-KIF5B-RET M918T cells (P07949 whole entry M918T, form open): as the sequence (P07949 whole entry, change not shown, the tested form may be a part) above, with M918T counted along it
T3 sequence (P07949 whole entry G810R, the tested form may be a part): as the sequence (P07949 whole entry, change not shown, the tested form may be a part) above, with G810R counted along it
T1 sequence (P07949 29-1114): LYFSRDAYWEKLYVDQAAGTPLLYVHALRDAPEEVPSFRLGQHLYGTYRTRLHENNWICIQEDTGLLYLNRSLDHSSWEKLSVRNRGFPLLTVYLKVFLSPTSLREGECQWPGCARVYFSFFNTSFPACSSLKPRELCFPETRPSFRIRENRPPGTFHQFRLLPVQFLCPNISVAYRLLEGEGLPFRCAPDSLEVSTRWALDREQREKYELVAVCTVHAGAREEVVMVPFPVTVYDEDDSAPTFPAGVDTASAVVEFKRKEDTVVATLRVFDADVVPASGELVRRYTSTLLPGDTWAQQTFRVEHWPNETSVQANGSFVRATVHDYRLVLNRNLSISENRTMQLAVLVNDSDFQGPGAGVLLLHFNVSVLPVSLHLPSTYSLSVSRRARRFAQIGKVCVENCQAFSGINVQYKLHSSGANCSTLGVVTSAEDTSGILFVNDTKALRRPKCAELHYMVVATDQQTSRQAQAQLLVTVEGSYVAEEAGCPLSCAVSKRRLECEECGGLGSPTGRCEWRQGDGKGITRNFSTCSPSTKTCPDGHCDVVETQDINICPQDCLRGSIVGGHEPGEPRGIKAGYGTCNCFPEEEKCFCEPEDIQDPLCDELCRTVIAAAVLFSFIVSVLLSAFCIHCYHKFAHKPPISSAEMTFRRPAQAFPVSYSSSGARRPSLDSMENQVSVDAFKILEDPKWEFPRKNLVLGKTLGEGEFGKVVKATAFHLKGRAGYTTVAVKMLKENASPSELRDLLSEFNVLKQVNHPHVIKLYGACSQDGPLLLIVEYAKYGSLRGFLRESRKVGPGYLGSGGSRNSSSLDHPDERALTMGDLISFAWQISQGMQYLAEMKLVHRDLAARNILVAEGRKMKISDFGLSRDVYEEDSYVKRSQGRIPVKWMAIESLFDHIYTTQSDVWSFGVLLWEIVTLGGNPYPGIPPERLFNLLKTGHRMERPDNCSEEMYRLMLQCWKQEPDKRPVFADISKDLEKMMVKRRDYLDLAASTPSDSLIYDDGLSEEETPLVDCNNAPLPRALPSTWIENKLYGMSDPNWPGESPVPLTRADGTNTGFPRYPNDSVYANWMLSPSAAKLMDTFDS
T6 sequence (P35968 20-1356): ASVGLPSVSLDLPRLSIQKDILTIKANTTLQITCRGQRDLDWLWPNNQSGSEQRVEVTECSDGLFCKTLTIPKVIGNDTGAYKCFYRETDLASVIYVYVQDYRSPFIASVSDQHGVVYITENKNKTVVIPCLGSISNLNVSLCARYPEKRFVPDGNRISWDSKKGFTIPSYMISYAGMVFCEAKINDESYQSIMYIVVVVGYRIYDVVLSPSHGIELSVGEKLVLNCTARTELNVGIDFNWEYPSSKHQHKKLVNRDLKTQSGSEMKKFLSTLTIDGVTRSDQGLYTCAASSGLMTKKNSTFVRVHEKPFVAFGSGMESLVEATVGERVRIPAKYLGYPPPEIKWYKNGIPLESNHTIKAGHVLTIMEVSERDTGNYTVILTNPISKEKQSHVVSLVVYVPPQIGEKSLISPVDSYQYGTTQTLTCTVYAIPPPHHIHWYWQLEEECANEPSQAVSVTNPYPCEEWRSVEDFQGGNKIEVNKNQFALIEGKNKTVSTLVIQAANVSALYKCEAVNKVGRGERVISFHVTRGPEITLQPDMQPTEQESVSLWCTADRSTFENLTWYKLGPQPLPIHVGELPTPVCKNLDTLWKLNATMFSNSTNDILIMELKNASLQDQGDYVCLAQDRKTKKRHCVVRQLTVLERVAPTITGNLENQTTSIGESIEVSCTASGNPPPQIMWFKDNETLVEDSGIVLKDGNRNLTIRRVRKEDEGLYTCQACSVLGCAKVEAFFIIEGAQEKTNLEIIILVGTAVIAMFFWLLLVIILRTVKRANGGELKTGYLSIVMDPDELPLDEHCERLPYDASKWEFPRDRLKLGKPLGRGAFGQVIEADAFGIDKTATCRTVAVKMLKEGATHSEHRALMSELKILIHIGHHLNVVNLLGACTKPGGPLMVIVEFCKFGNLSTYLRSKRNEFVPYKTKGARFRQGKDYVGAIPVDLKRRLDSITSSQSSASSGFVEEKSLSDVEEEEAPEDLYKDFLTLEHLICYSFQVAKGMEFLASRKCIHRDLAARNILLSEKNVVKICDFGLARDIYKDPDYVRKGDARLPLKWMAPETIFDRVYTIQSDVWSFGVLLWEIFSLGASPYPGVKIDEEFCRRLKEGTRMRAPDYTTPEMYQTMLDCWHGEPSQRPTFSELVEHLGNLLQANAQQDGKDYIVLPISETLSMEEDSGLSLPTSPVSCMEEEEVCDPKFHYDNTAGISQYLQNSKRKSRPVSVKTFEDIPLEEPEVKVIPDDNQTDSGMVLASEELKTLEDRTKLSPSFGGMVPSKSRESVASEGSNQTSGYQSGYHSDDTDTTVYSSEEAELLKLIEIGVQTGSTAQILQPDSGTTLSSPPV
T4 sequence (Q96GD4 whole entry): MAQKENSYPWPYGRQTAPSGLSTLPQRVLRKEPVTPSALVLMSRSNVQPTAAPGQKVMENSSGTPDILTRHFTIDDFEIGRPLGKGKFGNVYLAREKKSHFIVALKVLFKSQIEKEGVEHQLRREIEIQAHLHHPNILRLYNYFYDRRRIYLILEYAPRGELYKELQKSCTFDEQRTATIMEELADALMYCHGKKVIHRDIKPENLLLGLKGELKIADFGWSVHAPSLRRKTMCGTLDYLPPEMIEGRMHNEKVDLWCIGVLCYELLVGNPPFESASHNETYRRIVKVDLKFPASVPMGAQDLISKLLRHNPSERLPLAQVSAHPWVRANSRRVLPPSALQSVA
T4 sequence (Q9NQS7 803-918 partner limits assumed): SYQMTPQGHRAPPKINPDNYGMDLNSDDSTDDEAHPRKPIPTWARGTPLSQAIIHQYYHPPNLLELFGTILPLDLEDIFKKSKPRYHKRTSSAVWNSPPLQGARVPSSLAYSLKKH

With `COc1ccc(CN2C3CC2CN(c2ccc(-c4cc(-c5ccc(C(C)(C)O)cn5)cn5ncc(C#N)c45)cn2)C3)cn1` [Example 9, 6-(5-(2-hydroxypropan-2-yl)pyridin-2-yl)-4-(6-(6-((6-methoxypyridin-3-yl)methyl)-3,6-diazabicyclo[3.1.1]heptan-3-yl)pyridin-3-yl)pyrazolo[1,5-a]pyridine-3-carbonitrile], the IC50 at human RET kinase was 0.58 nM; at human Aurora B kinase, 80 nM; in the assay on BAF3 cells, 1130 nM. For the same compound, the GI50 in assay [1] was 13.2 nM; in assay [2], 4.8 nM; in assay [3] it was 54.6 nM; on BAF3-KIF5B-RET cells (setting [4]), 0.6 nM; on BAF3-KIF5B-RET cells (setting [5]), 0.6 nM.
Consider `CC(C)(O)c1ccc(-c2cc(-c3cnc(N4C5CC6CC4CC(NC(=O)c4ncccc4Cl)(C6)C5)cn3)c3c(C#N)cnn3c2)nc1` [Example 18, 3-chloro-N-((1R,3S,5s,7s)-2-(5-(3-cyano-6-(5-(2-hydroxypropan-2-yl)pyridin-2-yl)pyrazolo[1,5-a]pyridin-4-yl)pyrazin-2-yl)-2-azaadamantan-5-yl)picolinamide], for which the results for the IC50 at human RET kinase, at human KDR kinase and in the assay with BAF3 cells were 1.4 nM, 21 nM and 1170 nM, respectively. Further, the GI50 amounted to 18.4 nM in assay [1]; 3.9 nM in assay [2]; 59.4 nM in assay [3]; 0.7 nM at BAF3-KIF5B-RET cells (setting [4]); 0.7 nM at BAF3-KIF5B-RET cells (setting [5]).
For `COc1ccc(CN2C3CC2CN(c2ccc(-c4cc(OCC(C)(C)O)cn5ncc(C#N)c45)cn2)C3)cn1` [Loxo-292, reference compound], the GI50 in assay [1] amounted to 46.9 nM; in assay [2] it was 43.6 nM; in assay [3], 624 nM; on BAF3-KIF5B-RET cells (setting [5]) it was 3.3 nM.
